Results published in patent publication US11739326B2, “RUNX1 inhibition for treatment of proliferative vitreoretinopathy and conditions associated with epithelial to mesenchymal transition” (The Schepens Eye Research Institute, Inc., priority 2017, dated 2023).
Entries after “also recorded” stand apart in the source; their conditions may differ.

What was measured:
C-PVR cells [1] = test: Ki67 staining of C-PVR cells (cell number and proliferative capacity); type: cell-based, human; details: Ro5-3335 150 μM, 48 hours, vs vehicle
Experimental: C-PVR (e.g., case 5) cells were transfected with the siRUNX1 or siScramble for 48 hours and washed and fixed with 4% paraformaldehyde for 10 minutes at room temperature. The cells were washed with PBS and blocked for an hour in (10% goat serum in PBS) incubated with rabbit anti-Ki67 antibody (1:50; Novus Biologicals) overnight at 4 degrees. Cells were incubated with secondary antibody goat anti-rabbit 594 (1:300; Life Technologies) for 2 hours along with DAPI, then were washed and imaged (FIG. 7A-7I; quantitation depicted in FIG. 8).
C-PVR cells (e.g., case 5) were cultured in 48 well plates for 24, followed by treatment with 150 μM RUNX1 inhibitor (Ro5-3335, Calbiochem), or vehicle only for a period of 48 hours. The cells were washed and fixed with 4% paraformaldehyde for 10 minutes at room temperature. The cells were washed with PBS and blocked for an hour in (10% goat serum in PBS) incubated with rabbit anti-Ki67 antibody (1:50; Novus Biologicals) overnight at 4 degrees. Cells were incubated with secondary antibody goat anti-rabbit 594 (1:300; Life Technologies) for 2 hours along with DAPI, washed, imaged and quantified using Image J (FIGS. 9A and 9B).
C-PVR cells (e.g., case 5) were cultured in 48 well plates for 24, followed by treatment with 150 μM RUNX1 inhibitor (Ro5-3335, Calbiochem), or vehicle only for a period of 48 hours. […]

C-PVR cells [2] = test: CyQuant cell proliferation assay in C-PVR cells; type: cell-based, human; details: for percent live cells: C-PVR, Ro5-3335 100, 50, 25 μM, methotrexate 400, 100, 10 μM, alone or in combination vs vehicle
ARPE-19 cells [3] = test: CyQuant cell proliferation assay in ARPE-19 cells; type: cell-based; details: for percent live cells: Ro5-3335 100, 50, 25 μM, methotrexate 400, 100, 10 μM, alone or in combination vs vehicle
Experimental: (§1) ARPE 19 cells were cultured in 96 well plates for 8 hours, followed by treatment with RUNX1 inhibitor (Ro5-3335, Calbiochem) or Methotrexate (Sigma) in growth media or vehicle only for a period of 24 or 48 hours. The cells were washed and the CyQuant Direct nucleic acid stain was added and incubated at 37° C. in the incubator. Fluorescence read outs were measured at wavelengths as instructed in the protocol.

ARPE-19 cells [4] = test: Growth factor-induced EMT in ARPE-19 cells (morphology, marker immunofluorescence); type: cell-based; details: TGFβ2, TNFα
Experimental: ARPE-19 cells were grown to confluence and maintained in 1% serum for 7-10 days (FIG. 22). Cells were treated with growth factors TGFβ2, TNFα and IL-6 (10 ng/ml each) for 3 days, with 150 μM RUNX1 inhibitor (Ro5-3335, Calbiochem) or without (e.g., vehicle). […] EMT was determined by morphological changes including cell shape.
Furthermore, treatment with RUNX1 small molecule inhibitor, Ro5-335, in ARPE-19 cells prevented EMT. This was assessed by the reduction in the epithelial marker, cytokeratin, and an increase in the mesenchymal markers such as fibronectin, and smooth muscle actin (FIGS. 23A and 23B). ARPE-19 cells were grown to confluence and maintained in 1% for 7-10 days. Cells were treated with TGFβ2, TNFα, and a combination of TGFβ2, TNFα and IL-6 (10 ng/ml each) for 3 days with or without 150 uM RUNX1 inhibitor (Ro5-3335, Calbiochem) or vehicle. Cells were washed and fixed with 4% paraformaldehyde for 10 minutes at room temperature. Cells were incubated with primary antibodies, mouse anti-cytokeratin (1:250; Abcam), or rabbit anti-fibronectin (1:500, Sigma) or smooth muscle actin (1:50; DAKO) overnight at 4° C. […]
ARPE-19 cells were grown to 60-70% confluence. […] EMT was determined by morphological changes (e.g., cell shape).

human PVR membranes = test: Human PVR membrane explant model in Matrigel; type: cell-based; details: Ro5-3335 150 μM, combination with methotrexate 400 μM; for growth of human PVR membranes in explant model: vs control (DMSO)
Experimental: (§2) PVR membranes were freshly obtained from patients and placed in growth factor-reduced Matrigel (BD Biosciences) seeded in 24 well plates. 30 μl of matrigel were used to coat the bottom of 24 well plates without touching the edges of the well. After seeding the PVR membrane, explant plates were incubated in a 37° C. cell incubator without medium for 10 minutes in order for the Matrigel to solidify. 500 μl of medium was added to each well and incubated at 37° C. with 5% CO2. The explants were treated with RUNX1 inhibitor (Ro5-3335). Phase contrast photos of individual explants were taken daily.
as §2, with “from patients,” for “from patients and”, “(BD Biosciences), and” for “(BD Biosciences)”, “matrigel was” for “matrigel were”, “After seeding,” for “After seeding”, “PVR membrane” for “PVR membrane,”, “inhibitor (Ro5-3335) or a combination of Ro5-3335 and methotrexate.” for “inhibitor (Ro5-3335).”

C-PVR cells [5] = test: CyQuant cell proliferation assay in C-PVR cells; type: cell-based, human; details: for proliferation / percent live cells of C-PVR cells: 72 hours, vs vehicle
Experimental: as §1
A CyQuant Cell Proliferation Assay was performed 48 and 72 hours post-treatment, with lenalidomide at 40 nM, and 80 nM. […] C-PVR cells were cultured in 96 well plates for 8 hours, followed by treatment with lenalidomide (Sigma-Aldrich) in growth media or vehicle only for a period of 48 or 72 hours. The cells were washed, and CyQuant Direct and nucleic acid stain was added and incubated at 37° C. Fluorescence read outs were measured at wavelengths as instructed in the protocol.

| SMILES | cell number and proliferative capacity of C-PVR cells (Ki67 staining) (C-PVR cells [1]) | cell number and proliferative capacity of C-PVR cells (Ki67 staining) (C-PVR cells [1]; listed as Ro5-335) | efficacy at inhibiting growth of C-PVR cells compared to methotrexate (C-PVR cells [2]; 24 or 48 hours) | percent live cells (C-PVR cells [2]; 24 hours) | percent live cells (C-PVR cells [2]; 48 hours) | efficacy at inhibiting growth of ARPE-19 cells compared to methotrexate (ARPE-19 cells [3]; 24 or 48 hours) | percent live cells (ARPE-19 cells [3]; ARPE-19, 24 hours) | percent live cells (ARPE-19 cells [3]; ARPE-19, 48 hours) | EMT determined by morphological changes including cell shape (ARPE-19 cells [4]; IL-6 (10 ng/ml each) 3 days, Ro5-3335 150 μM vs vehicle) | EMT assessed by cytokeratin, fibronectin and smooth muscle actin immunofluorescence (ARPE-19 cells [4]; combination with IL-6 (10 ng/mL each) 3 days, Ro5-3335 150 uM) | detachment of the branches from the primary tissue in human PVR explants (human PVR membranes) | branching, regression of branches and apoptosis in human PVR explants (human PVR membranes; vs DMSO) | growth of human PVR membranes in explant model (human PVR membranes) | growth of human PVR membranes in explant model (human PVR membranes; listed as Ro5-335) | proliferation of C-PVR cells (C-PVR cells [5]; 40 nM, 48 hours) | proliferation / percent live cells of C-PVR cells (C-PVR cells [5]; 40 nM) | proliferation of C-PVR cells (C-PVR cells [5]; 80 nM, 48 hours) | proliferation / percent live cells of C-PVR cells (C-PVR cells [5]; 80 nM) | proliferation of C-PVR cells (C-PVR cells [5]; 40 and 80 nM, 48 and 72 hours (summary statement)) | proliferation of C-PVR cells (C-PVR cells [5]; 40 and 80 nM, 48 and 72 hours (summary statement), listed as Lenlidomide) |
| --- | --- | --- | --- | --- | --- | --- | --- | --- | --- | --- | --- | --- | --- | --- | --- | --- | --- | --- | --- | --- |
| O=C1CN=C(c2ccc[nH]2)c2cc(Cl)ccc2N1 [Ro5-3335] | significant reduction in the cell number and proliferative capacity | significant reduction in the cell number and proliferative capacity | more efficacious than treatment with methotrexate at inhibiting growth of C-PVR cells | significant reduction in percent live cells | significant reduction in percent live cells | more efficacious at inhibiting growth of ARPE-19 cells; also recorded: more efficacious than treatment with methotrexate | significant reduction in percent live cells | significant reduction in percent live cells | either no or reduced EMT | prevented EMT | Detachment of the branches from the primary tissue was also observed | apoptosis, less branching and a faster regression of the branches; also recorded: Less branching, a faster regression of the branches and apoptosis | significant reduction of human PVR; also recorded: no growth after 4 days; also recorded: reduced growth of human PVR membranes | reduced the growth of human PVR membranes; also recorded: now growth after four days |  |  |  |  |  |  |
| Nc1cccc2c1CN(C1CCC(=O)NC1=O)C2=O (stereo not drawn) [lenalidomide, 3-(7-amino-3-oxo-1H-isoindol-2-yl)piperidine-2,6-dione] |  |  |  |  |  |  |  |  |  |  |  |  |  |  | inhibited proliferation | significant reduction in percent live cells | inhibited proliferation | significant reduction in percent live cells | significantly reduced proliferation | inhibited proliferation |
| CN(Cc1cnc2nc(N)nc(N)c2n1)c1ccc(C(=O)N[C@@H](CCC(=O)O)C(=O)O)cc1 [methotrexate] |  |  |  | significant reduction in percent live cells | significant reduction in percent live cells |  | significant reduction in percent live cells | significant reduction in percent live cells |  |  |  |  |  |  |  |  |  |  |  |  |
